Laboratory results published in US20240316196A1, “METHODS AND COMPOSITIONS FOR DIFFERENTIATION OF PLURIPOTENT STEM CELLS AND DERIVED NATURAL KILLER CELLS” (NUWACELL BIOTECHNOLOGIES CO., LTD., priority 2022, published 2024).

Key:
hiPSCs = assay: Directed differentiation of hiPSCs into HE (KDR+), HP (CD34+) and iNK (CD56+) cells, flow cytometry; format: cell-based, human; settings: for output of CD34^+ HP cells / output of CD56^+ iNK cells: added during Stage 1-4 (XAV939 5 μM, SB431542 6 μM); for output of CD34^+ HP cells: Day 10, vs control without both (FIG. 8A); for output of CD56^+ iNK cells: Day 25, vs control without both (FIGS. 8B, 8C)
Experimental: hiPSCs were prepared as described in CN108373998B. The effect of plate coating during Stage 2 on iNK differentiation was further evaluated. On Day −1, Embryoid body (EB) formation (Stage 1-1) was carried out by placing individualized hiPSCs in E8 medium containing 10 μM Blebbistatin in T25 flasks on a bellydancer and culture overnight. On Day 0, lateral mesoderm differentiation (Stage 1-2) was initiated by changing the medium to a Stage 1-2 differentiation medium comprising CD34A basal medium and supplemented with BMP4 (25 ng/mL), VEGF (15 ng/mL), bFGF (0.5 ng/mL) and CHIR99021 (4 μM) for 2 days. On Day 2, lateral mesoderm differentiation (Stage 1-3) continued for 1 day in a Stage 1-3 differentiation medium comprising CD34A basal medium and supplemented with BMP4 (25 ng/mL), VEGF (15 ng/mL) and bFGF (0.5 ng/mL) and CHIR99021 (4 μM). On Day 3, HE specification (Stage 1-4) was initiated by adding a Stage 1-4 differentiation medium comprising CD34A basal medium and supplemented with insulin (5 μg/mL), VEGF (15 ng/mL), bFGF (5 ng/mL), SB431542 (6 μM) for 1 day. On Day 4 (the end of Stage 1-4), HP differentiation (Stage 1-5) in was initiated by adding a Stage 1-5 differentiation medium comprising CD34A basal medium and supplemented with SCF (10 ng/mL), Flt3L (10 ng/mL), VEGF (15 ng/mL) and bFGF (5 ng/mL). To initiate the differentiation from HP cells into iNK cells (Stage 2), EBs of Day 11 were collected and seeded in 24-well-plates without matrix or coated with DLL4 and VCAM1, in a Stage 2 differentiation medium comprising NKSFM and supplemented with SCF (20 ng/mL), Flt3L (10 ng/mL), IL-7 (25 ng/mL), IL-3 (5 ng/mL), IL-15 (10 ng/mL) for 14 days. On Day 25 (Stage 2-wk2), derived cells were counted and stained with CD56-PE antibody, the percentage of CD56+ iNK cells was detected by flow cytometry. […] The differentiation from hPSCs to immature iNK cells was accomplished in only 26 days. Furthermore, the percentage of CD56+CD3−iNK cells at the end of Stage 2 is as high as 80.56% when differentiation was performed with NKSFM and DLL4/VCAM1.
hiPSCs were prepared as described in CN108373998B. On Day −1, Embryoid body (EB) formation (Stage 1-1) was carried out by placing individualized hiPSCs in E8 medium containing 10 μM Blebbistatin in T25 flasks on a bellydancer and culture overnight. On Day 0, lateral mesoderm differentiation (Stage 1-2) was initiated by changing the medium to a Stage 1-2 differentiation medium comprising IF-4 basal medium and supplemented with BMP4 (25 ng/mL), VEGF (50 ng/mL), bFGF (0.5 ng/mL) and CHIR99021 (4 μM) for 2 days. On Day 2, lateral mesoderm differentiation (Stage 1-3) continued for 1 day in a Stage 1-3 differentiation medium comprising IF-4 basal medium and supplemented with BMP4 (25 ng/mL), VEGF (50 ng/mL) and bFGF (0.5 ng/mL) and CHIR99021 (1 μM). On Day 3, HE specification (Stage 1-4) was initiated by adding a Stage 1-4 differentiation medium comprising IF-4 basal medium and supplemented with VEGF (50 ng/mL), bFGF (5 ng/mL), and without or with XAV939 (5 μM) and/or SB431542 (6 μM) for 1 day. On Day 4, HP differentiation (Stage 1-5) was initiated by adding a Stage 1-5 differentiation medium comprising NKSFM and supplemented with SCF (50 ng/mL), Flt3L (10 ng/mL), VEGF (15 ng/mL) and bFGF (5 ng/mL) for 6 days. On Day 10 (the end of Stage 1), EBs were dissociated into single cells and stained with CD34-APC antibody (BD, #555824), the percentage of CD34^+ HP cells was detected by flow cytometry. To initiate the differentiation from HP cells into iNK cells (Stage 2), EBs were collected and seeded in 24-well-plates coated with matrix proteins, DLL4 and VCAM1, in a Stage 2 differentiation medium comprising NKSFM and supplemented with SCF (20 ng/mL), Flt3L (10 ng/mL), IL-7 (25 ng/mL), IL-3 (5 ng/mL), IL-2 (700 IU/mL), IL-15 (10 ng/mL) for 15 days. On Day 25 (the end of Stage 2), derived cells were counted and stained with CD56-PE antibody (BD, #555516), the percentage of CD56^+ iNK cells was detected by flow cytometry. […]

PBNK cells = assay: Expansion of PBNK cells from PBMCs (NK cell expansion fold; CD56+CD3− % by flow cytometry); format: cell-based; settings: NAM 0-5 mM in basal medium
Experimental: The effect of the concentration of nicotinamide (NAM) in an exemplary basal medium on NK cell expansion was evaluated. The above basal medium comprised the following components: IMDM (Sigma): RPMI1640 (Gibco) (50%: 50%); about 1.3 ng/mL of Cupric sulfate, about 3 μM of Ferric sulfate, about 0.432 μg/mL of Zinc sulfate, about 1-50 ng/mL of Na Selenite, about 110 μg/mL of Sodium pyruvate, 0.1-20 μg/mL of Insulin, 1-200 μg/mL of Transferrin, about 1%(v/v) of GlutaMAX-1, 0.1-20 mg/mL of HSA, 1-400 μM of MTG, about 80 μg/mL of Ascorbic acid and indicated concentration of NAM. Peripheral blood mononuclear cells (PBMCs) were isolated by density gradient centrifugation using Ficoll-Paque. On Day 0, PBMCs were plated at 1×10^6 cells/mL in a 48-well-plate in the basal medium with NAM (either 0, 1, 2, 2.5, 3, 3.5, 4, or 5 mM) and stimulated with the following reagents for 3 days: immobilized CD16 antibody (Biolegend, 302014) (135 ng/cm^2), IL-2 (700 IU/mL), IL-15 (10 ng/mL) and OK432 (0.01 KE/mL). On day 3, cells were re-suspended in the above basal medium supplemented with IL-2 (700 IU/mL) and IL-15 (10 ng/mL). Fresh medium was added every other day to maintain cell density below 2×10^6 cells/mL. Cells were collect on Day 14 and stained with CD56-PE and CD3-PerCP-Cy5.5 antibodies, the percentage of CD56^+CD3^− NK cells was analyzed by flow cytometry.
The effect of heparin sodium concentration in an exemplary NKSFM on NK cell expansion was also evaluated. NKSFM comprised the following components: IMDM (Sigma): DMEM/F12 (Gibco) (50%: 50%); about 20 μM of Ethanolamine, about 1-50 ng/mL of Na Selenite, about 110 μg/mL of Sodium pyruvate, 0.1-20 μg/mL of Insulin, 1-200 μg/mL of Transferrin, about 1%(v/v) of GlutaMAX-1, 0.1-20 mg/mL of Human serum albumin, 1-400 μM of MTG, about 80 μg/mL of Ascorbic acid, about 1-5 mM of NAM, 4%(v/v) of PLT, and indicated concentration of heparin sodium. PBMCs were isolated by density gradient centrifugation using Ficoll-Paque. On Day 0, PBMCs were plated at 1×10^6 cells/mL in a 48-well-plate in NKSFM with heparin sodium (0, 0.5, 1, 3, 10, 30, or 50 μg/mL) and stimulated with the following reagents for 3 days: immobilized CD16 antibody (Biolegend, 302014) (135 ng/cm^2), OK432 (0.01 KE/mL), NeoIL-2 (50 ng/mL), IL-12 (10 ng/mL), IL-18 (50 ng/mL). […] Cells were collect on Day 13 and stained with CD56-PE and CD3-PerCP-Cy5.5 antibodies, the percentage of CD56^+CD3^− NK cells was analyzed by flow cytometry. The specific lysis of K562 tumor cells by NK cells were assessed by CFSE/7-AAD cytotoxicity assay. […] After incubation for 4 hours, cells were stained with 7-AAD (Live/dead staining) and analyzed with flow cytometry.
The effect of PLT percentage (v/v) in an exemplary NKSFM on NK cell expansion was evaluated. […]

[1] = higher VEGF concentration during Stage 1-5

For VEGF, the “HP and iNK cell differentiation” value (hiPSCs; Example 12: higher concentration during Stage 1, especially Stage 1-2, 1-3 and 1-4 (Table 3.2, FIG. 12)) was “significantly improves”, the “percentage of KDR+ HE cells, effect of concentration” value (hiPSCs; VEGF 15-100 ng/mL in Stage 1 substages (Table 3.1), Day 4 (FIG. 11A)) was “minimal effects” and the “percentage of CD34+ HP cells, effect of concentration” value (hiPSCs; VEGF 15-100 ng/mL in Stage 1 substages (Table 3.1), Day 10 (FIG. 11B)) was “significantly impacts”. The “efficiency of further differentiation into iNK cells, effect of concentration” value (hiPSCs; VEGF 15-100 ng/mL in Stage 1 substages (Table 3.1), Day 24 morphology (FIG. 11C)) was “significantly impacts”, the “differentiation into HP cells and iNK cells” value (hiPSCs; higher VEGF concentration during Stage 1-2 and Stage 1-3) was “generally beneficial” and the “differentiation into HP cells” value (hiPSCs; [1]) was “generally beneficial”. For the same molecule, the “differentiation into iNK cells” value (hiPSCs; [1]) was “not into iNK cells”.
For `NC(=O)c1ccc(-c2nc(-c3ccc4c(c3)OCO4)c(-c3ccccn3)[nH]2)cc1` [SB431542], the “output of CD34^+ HP cells” value (hiPSCs) was “improvement in increasing CD34^+ HP cell production at a certain degree” and the “output of CD56^+ iNK cells” value (hiPSCs) was “does not show any improvement”.
In the case of `Cc1c[nH]c(-c2cnc(NCCNc3ccc(C#N)cn3)nc2-c2ccc(Cl)cc2Cl)n1` [CHIR99021], the “differentiation into CD34+ HP cells” value (hiPSCs; higher concentration during Stage 1-2 (5, 6, 7, 8 μM), Day 7 (FIG. 9A)) is reported as “generally more advantageous”, the “differentiation into CD56+ iNK cells” value (hiPSCs; higher concentration during Stage 1-2 (5, 6, 7, 8 μM), Day 24 (FIGS. 9B, 9C)) is reported as “somewhat disadvantageous” and the “differentiation into CD34+ HP cells” value (hiPSCs; lower concentration during Stage 1-3 (0-4 μM), Day 7 (FIG. 10A)) is reported as “somewhat disadvantageous”. For the same molecule, the “differentiation into CD56+ iNK cells” value (hiPSCs; lower concentration during Stage 1-3 (0-4 μM), Day 24 (FIGS. 10B, 10C)) was “generally more advantageous”.
`NC(=O)c1cccnc1` [NAM, nicotinamide] was tested, and the “NK cell expansion fold, effect of concentration” value (PBNK cells; Day 14 (FIG. 2A)) was “significantly impacts” and the “percentage of CD56^+CD3^− NK cells, effect of concentration” value (PBNK cells; Day 14 (FIG. 2B)) was “minimal effects”.
`Oc1nc(-c2ccc(C(F)(F)F)cc2)nc2c1CSCC2` [XAV939] was tested, and the “output of CD34^+ HP cells” value (hiPSCs) was “significantly promotes” and the “output of CD56^+ iNK cells” value (hiPSCs) was “significantly promotes”.
